Laboratory results as given in patent US11096906B2, “Pharmaceutical composition for preventing or treating Alzheimer's disease” (SFCBIO. CO., LTD., priority 2015, dated 2021).

Assays:
Assay type in all cases: cell-based
APP*t-CHO cells = assay: MTT-based cytotoxicity assay
Procedure: The cytotoxicity of Compounds 1-3 separated and identified in Examples 1-5 was investigated by MTT-based cytotoxicity assay. APP*t-CHO cells treated with Compounds 1-3 were cultured for 24 hours. After adding a 5 mg/mL MTT solution, the cells were cultured for 4 hours. After removing the culture medium and lysing the cells for 30 minutes by adding DMSO, absorbance was measured at 540 nm using the Emax precision microplate reader (Molecular Devices, CA, USA).

β-secretase = assay: Amount of β-secretase protein in APPwt-CHO cells, by western blot; settings: for reduction of the amount of β-secretase protein as compared to the control group: APPwt-CHO cells
Procedure: (§1) In order to evaluate the ability of suppressing β-amyloid formation of Compounds 1-3, APPwt-CHO cells obtained by overexpressing APP in CHO cells were used and the amount of the sAPPβ protein cleaved by β-secretase and released out of the cells was measured by western blot. When the APP precursor protein is cleaved first by β-secretase, sAPPβ is released out of the cell. The protein remaining attached to the membrane is cleaved again by γ-secretase to produce β-amyloid. Accordingly, the amount of β-secretase and sAPPβ is proportional to the amount of the produced β-amyloid. Therefore, the amount of the two proteins was measured by western blot.

sAPPβ protein = assay: Amount of sAPPβ protein released from APPwt-CHO cells, by western blot; settings: for reduction of the amount of sAPPβ protein as compared to the control group: APPwt-CHO cells
Procedure: as §1

[1] = 100 μg/mL, cells cultured 24 hours, MTT

## CCCC(=O)c1c(O)cc(O)c(C)c1O [Compound 3, 2-butyryl-4-methylphloroglucinol]
APP*t-CHO cells; 20 μg/mL
  cytotoxicity: no toxicity was observed
APP*t-CHO cells; [1]
  cytotoxicity: showed toxicity
APP*t-CHO cells; cells cultured 24 hours, MTT
  concentration at which toxicity was shown: ≥ 30000 ng/mL
β-secretase
  decrease of the amount of β-secretase (in words): effectively decreased
β-secretase; 10 μg/mL
  reduction of the amount of β-secretase protein as compared to the control group: about 20%
β-secretase; 20 μg/mL
  reduction of the amount of β-secretase protein as compared to the control group: about 30%
sAPPβ protein; 10 μg/mL
  reduction of the amount of sAPPβ protein as compared to the control group: about 40%
sAPPβ protein; 20 μg/mL
  reduction of the amount of sAPPβ (in words): almost perfectly
  reduction of the amount of sAPPβ protein as compared to the control group: about 80%

## CCC(=O)c1c(O)cc(O)c(C)c1O [Compound 2, 2-propionyl-4-methylphloroglucinol]
APP*t-CHO cells; [1]
  cytotoxicity: no toxicity
β-secretase; 20 μg/mL
  reduction of the amount of β-secretase protein as compared to the control group: about 40%
β-secretase; 100 μg/mL
  reduction of the amount of β-secretase protein as compared to the control group: about 60%
sAPPβ protein; 20 μg/mL
  reduction of the amount of sAPPβ protein as compared to the control group: about 40%
sAPPβ protein; 100 μg/mL
  reduction of the amount of sAPPβ protein as compared to the control group: about 80%

## CCCC(=O)c1c(O)cc(O)cc1O [Compound 1, butyrylphloroglucinol]
APP*t-CHO cells; [1]
  cytotoxicity: no toxicity
β-secretase; 10 μg/mL
  reduction of the amount of β-secretase protein as compared to the control group: about 10%
β-secretase; 20 μg/mL
  reduction of the amount of β-secretase protein as compared to the control group: about 30%
sAPPβ protein; 10 μg/mL
  reduction of the amount of sAPPβ protein as compared to the control group: about 20%
sAPPβ protein; 20 μg/mL
  reduction of the amount of sAPPβ protein as compared to the control group: about 70%
